Values quoted from earlier work in patent US20110118360A1, “AGENT FOR ACTIVATING STEM CELLS” (priority 2008, published 2011).

B1: Filgastrim: glycoprotein consisting of 175 amino acids obtained by expression of a human gene in E. coli (protein, chains of the INN, looked up)
chain: MTPLGPASSLPQSFLLKCLEQVRKIQGDGAALQEKLCATYKLCHPEELVLLGHSLGIPWAPLSSCPSQALQLAGCLSQLHSGLFLYQGLLQALEGISPELGPTLDTLQLDVADFATTIWQQMEELGMAPALQPTQGAMPAFASAFQRRAGGVLVASHLQSFLEVSYRVLRHLAQP
modifications: N-terminal methionine, E. coli expressed
notes: glycoprotein consisting of 175 amino acids obtained by expression of a human gene in E. coli

Legend:
neutrophils = details: shortened from 5

| Molecule | effect on mesenchymal stem cells (mesenchymal stem cells) | effect on 26S proteasome activity (26S proteasome) | maturation period of neutrophils from the progenitor cells (neutrophils) |
| --- | --- | --- | --- |
| CC(C)C[C@H](NC(=O)[C@H](Cc1ccccc1)NC(=O)c1cnccn1)B(O)O [bortesomib, [(1R)-3-methyl-1 [[(2S)-1-oxo-3-phenyl-2-[(pirasinilcarbonil)amino]propyl]amino]butyl]] | direct pharmacological effect on mesenchymal stem cells | highly selective reversible inhibitor | – |
| B1 | – | – | 1 days |
